Measured values from patent US11925629B2, “Heterocyclic inhibitors of ERK1 and ERK2 and their use in the treatment of cancer” (Asana Biosciences, LLC, priority 2015, dated 2024).
Like-named read-outs stand apart in the source and are kept apart here.

Assays:
Type in all cases: cell-based, human
[1] = tested on: HT-29 (colorectal carcinoma, B-RafV600E) cells; experiment: Cell proliferation (Alamar Blue) assay, HT-29; conditions: Homo sapiens, HT-29, HT29 cells
Method in brief: (§1)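 Fluorescence read-out (ex 540 nm, em 590 nm) after 1-3 h with 1× Alamar Blue, following 72 h compound exposure at 37° C./5% CO2. Compounds tested at typically 0.0005 to 10 uM, 3-fold steps; IC50 by sigmoidal dose-response (variable slope).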

[2] = tested on: HCT116 (colorectal carcinoma, K Ras G13D) cells; experiment: Cell proliferation (Alamar Blue) assay, HCT116; conditions: Homo sapiens, HCT-116, HCT116 cells
Method in brief: as §1

[3] = tested on: phosphorylation of RSK1(S380) (the downstream target of ERK1/2); experiment: Phospho-RSK1(S380) ELISA assay in HT-29 cells; conditions: Homo sapiens, HT-29, HT29 cells, read-out: Mechanistic Cell Assay RSK1 Phos HT29 IC50
Method in brief: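 IC50 values derive from a variable-slope sigmoidal fit of sandwich-ELISA signal (450 nm) for RSK1 Ser380 phosphorylation. The cells were B-RafV600E HT-29 colorectal line, exposed to serially diluted compound for 2 h after overnight seeding, then lysed at 4° C.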

Compound | IC50 [1] [nM] | IC50 [2] [nM] | IC50 ([3]; phospho-RSK1(S380)) [nM] | IC50 [3] [nM]
O=C(NC(CO)c1cccc(Cl)c1)c1cn(-c2ccnc(Nc3ccc4c(c3)CCO4)c2)cn1 (stereo not drawn) [Cmpd 163, N-(1-(3-chloro-phenyl)-2-hydroxy-ethyl)-1-(2-((2,3-dihydro-benzofuran-5-yl)amino)pyridin-4-yl)-1H-imidazole-4-carboxamide] | 500 to 2500 | > 2500 | 100 to 250 | 
Cc1cnc(Nc2ccc3c(c2)OC(C)(C)O3)nc1-n1ccc(C(=O)NC(CO)c2ccccc2)c1 (stereo not drawn) [Example 95, 1-(2-((2,2-dimethyl-benzo[d][1,3]dioxol-5-yl)-amino)-5-methyl-pyrimidin-4-yl)-N-(2-hydroxy-1-phenylethyl)-1H-pyrrole-3-carboxamide] | 250 to 500 | 500 to 2500 | 250 to 500 | 
O=C(NC(CO)c1ccccc1)c1ccn(-c2ccnc(Nc3ccccc3)c2)c1 (stereo not drawn) [Example 71, N-(2-hydroxy-1-phenylethyl)-1-(2-(phenylamino)pyridin-4-yl)-1H-pyrrole-3-carboxamide] | 500 to 2500 | > 2500 | 250 to 500 | 
Cc1cnc(NC2CCOC2)nc1-n1ccc(C(=O)N[C@H](CO)c2ccc(F)c(Cl)c2)c1 (stereo partly drawn) [Example 157, N-((S)-1-(3-chloro-4-fluorophenyl)-2-hydroxy-ethyl)-1-(5-methyl-2-((tetrahydro-furan-3-yl)amino)pyrimidin-4-yl)-1H-pyrrole-3-carboxamide] | 250 to 500 | 500 to 2500 | 250 to 500 | 
Cc1cnc(Nc2ccc(N3CCNCC3)cc2)nc1-n1ccc(C(=O)NC(CO)c2ccccc2)c1 (stereo not drawn) [Example 73, N-(2-hydroxy-1-phenylethyl)-1-(5-methyl-2-((4-(piperazin-1-yl)-phenyl)amino)pyrimidin-4-yl)-1H-pyrrole-3-carboxamide] | 500 to 2500 | 500 to 2500 | > 2500 | 
Cc1cnc(Nc2ccc(F)cc2)nc1-n1ccc(C(=O)NC(CO)c2cccc(Cl)c2)c1 (stereo not drawn) [Example 113, N-(1-(3-chloro-phenyl)-2-hydroxy-ethyl)-1-(2-((4-fluoro-phenyl)amino)-5-methyl-pyrimidin-4-yl)-1H-pyrrole-3-carboxamide] | 100 to 250 | 100 to 250 | 100 to 250 | 
Cc1cnc(Nc2ccc(F)cc2Cl)nc1-n1cnc(C(=O)NC(CO)c2cccc(Cl)c2)c1 (stereo not drawn) [Example 166, 1-(2-((2-chloro-4-fluorophenyl)amino)-5-methyl-pyrimidin-4-yl)-N-(1-(3-chlorophenyl)-2-hydroxy-ethyl)-1H-imidazole-4-carboxamide] | 500 to 2500 | > 2500 | 250 to 500 | 
Cc1cnc(Nc2ccc(F)cc2)nc1-n1ccc(C(=O)N[C@H](CO)c2ccc(F)c(Cl)c2)c1 [Example 125, (S)-N-(1-(3-chloro-4-fluorophenyl)-2-hydroxy-ethyl)-1-(2-((4-fluoro-phenyl)-amino)-5-methyl-pyrimidin-4-yl)-1H-pyrrole-3-carboxamide] | 250 to 500 | 250 to 500 | 100 to 250 | 
Cc1cnc(Nc2ccc3c(c2)OC(C)(C)O3)nc1-n1ccc(C(=O)NC(CO)c2cccc(Cl)c2)c1 (stereo not drawn) [Example 96, N-(1-(3-chloro-phenyl)-2-hydroxy-ethyl)-1-(2-((2,2-dimethyl-benzo[d][1,3]dioxol-5-yl)amino)-5-methyl-pyrimidin-4-yl)-1H-pyrrole-3-carboxamide] | 250 to 500 | 500 to 2500 | 250 to 500 | 
COc1cnc(Nc2ccc(F)cc2Cl)nc1-n1ccc(C(=O)NC(CO)c2ccccc2)c1 (stereo not drawn) [Example 129, 1-(2-((2-chloro-4-fluorophenyl)amino)-5-methoxy-pyrimidin-4-yl)-N-(2-hydroxy-1-phenylethyl)-1H-pyrrole-3-carboxamide] | > 2500 | > 2500 | 500 to 2500 | 
Cc1cnc(N[C@H]2CCOC2)nc1-n1ccc(C(=O)N[C@H](CO)c2cccc(Cl)c2)c1 [Example 161, N-((S)-1-(3-chlorophenyl)-2-hydroxy-ethyl)-1-(5-methyl-2-(((S)-tetra-hydrofuran-3-yl)amino)pyrimidin-4-yl)-1H-pyrrole-3-carboxamide] | ≤ 100 | 250 to 500 | ≤ 100 | 
CC[C@@H](CO)Nc1cc(-n2ccc(C(=O)NC(CO)c3ccccc3)c2)c(C)cn1 (stereo partly drawn) [Example 100, N-(2-hydroxy-1-phenyl-ethyl)-1-(2-(((S)-1-hydroxy-butan-2-yl)amino)-5-methyl-pyridin-4-yl)-1H-pyrrole-3-carboxamide] | > 2500 | > 2500 | 250 to 500 | 
Cc1cnc(Nc2ccc3c(c2)OCO3)nc1-n1ccc(C(=O)N[C@H](CO)c2ccc(F)c(Cl)c2)c1 [Example 87, (S)-1-(2-(benzo[d][1,3]dioxol-5-ylamino)-5-methyl-pyrimidin-4-yl)-N-(1-(3-chloro-4-fluorophenyl)-2-hydroxy-ethyl)-1H-pyrrole-3-carboxamide] | 250 to 500 | 500 to 2500 | 100 to 250 | 

Results, then the compound that gave them:

IC50 [1] [nM] | IC50 [2] [nM] | IC50 ([3]; phospho-RSK1(S380)) [nM] | IC50 [3] [nM] | Compound
500 to 2500 | > 2500 | > 2500 |  | Cc1cnc(NC2CCCCC2O)nc1-n1ccc(C(=O)NC(CO)c2ccc(F)c(Cl)c2)c1 (stereo not drawn) [Example 202, N-(1-(3-chloro-4-fluorophenyl)-2-hydroxyethyl)-1-(2-((2-hydroxycyclohexyl)amino)-5-methylpyrimidin-4-yl)-1H-pyrrole-3-carboxamide]
≤ 100 | 250 to 500 |  | ≤ 100 | Cc1cnc(Nc2ccc(F)cc2Cl)nc1-n1cnc(C(=O)NCc2cccc(Cl)c2CO)c1 [Example 329, N-(3-chloro-2-(hydroxymethyl)benzyl)-1-(2-((2-chloro-4-fluorophenyl)amino)-5-methylpyrimidin-4-yl)-1H-imidazole-4-carboxamide]
250 to 500 | 500 to 2500 | 250 to 500 |  | Cc1cccc(C(CO)NC(=O)c2ccn(-c3nc(N[C@H]4CCOC4)ncc3C)c2)c1 (stereo partly drawn) [Example 187, N-(2-hydroxy-1-(m-tolyl)ethyl)-1-(5-methyl-2-(((S)-tetrahydrofuran-3-yl)amino)pyrimidin-4-yl)-1H-pyrrole-3-carboxamide]
100 to 250 | 500 to 2500 |  | 100 to 250 | Cc1cnc(NC2CCOCC2)nc1-n1cnc(C(=O)N[C@H](CNCC(C)(C)C)c2cccc(Cl)c2)c1 [Example 337, (S)-N-(1-(3-chlorophenyl)-2-(neopentylamino)ethyl)-1-(5-methyl-2-((tetrahydro-2H-pyran-4-yl)amino)pyrimidin-4-yl)-1H-imidazole-4-carboxamide]
> 2500 | > 2500 |  | > 2500 | Cc1cnc(N[C@H]2CCOC2)nc1-n1cnc(C(=O)NCc2cccc(C#N)c2)c1 [Example 310, (S)-N-(3-cyanobenzyl)-1-(5-methyl-2-((tetrahydrofuran-3-yl)amino)pyrimidin-4-yl)-1H-imidazole-4-carboxamide]
250 to 500 | 250 to 500 | 500 to 2500 |  | Cc1cnc(Nc2ccnn2C)nc1-n1cnc(C(=O)N[C@H](CO)c2cccc(Cl)c2)c1 [Example 277, (S)-N-(1-(3-chlorophenyl)-2-hydroxyethyl)-1-(5-methyl-2-((1-methyl-1H-pyrazol-5-yl)amino)pyrimidin-4-yl)-1H-imidazole-4-carboxamide]
500 to 2500 | 500 to 2500 | 500 to 2500 |  | Cc1cnc(Nc2ccc3c(c2)CC(=O)N3)nc1-n1ccc(C(=O)NC(CO)c2cccc(Cl)c2)c1 (stereo not drawn) [Example 198, N-(1-(3-chlorophenyl)-2-hydroxyethyl)-1-(5-methyl-2-((2-oxoindolin-5-yl)amino)pyrimidin-4-yl)-1H-pyrrole-3-carboxamide]
250 to 500 | 500 to 2500 | 250 to 500 |  | Cc1cnc(Nc2ccc(F)c(C(=O)N(C)C)c2)nc1-n1ccc(C(=O)NC(CO)c2cccc(Cl)c2)c1 (stereo not drawn) [Example 194, N-(1-(3-chlorophenyl)-2-hydroxyethyl)-1-(2-((3-(dimethylcarbamoyl)-4-fluorophenyl)amino)-5-methylpyrimidin-4-yl)-1H-pyrrole-3-carboxamide]
500 to 2500 | 250 to 500 |  | ≤ 100 | Cc1cnc(Nc2ccc3c(c2)OC(F)(F)O3)nc1-n1cnc(C(=O)NCc2cccc(Cl)c2CO)c1 [Example 332, N-(3-chloro-2-(hydroxymethyl)benzyl)-1-(2-((2,2-difluorobenzo[d][1,3]dioxol-5-yl)amino)-5-methylpyrimidin-4-yl)-1H-imidazole-4-carboxamide]
100 to 250 | 100 to 250 | 100 to 250 |  | Cc1cnc(Nc2ccc3c(c2)CCCO3)nc1-n1ccc(C(=O)NC(CO)c2ccccc2)c1 (stereo not drawn) [Example 173, 1-(2-(chroman-6-ylamino)-5-methylpyrimidin-4-yl)-N-(2-hydroxy-1-phenylethyl)-1H-pyrrole-3-carboxamide]
100 to 250 | 500 to 2500 | 100 to 250 |  | Cc1cnc(NC2CCCCC2)nc1-n1ccc(C(=O)NC(CO)c2cccc(Cl)c2)c1 (stereo not drawn) [Example 195, N-(1-(3-chlorophenyl)-2-hydroxyethyl)-1-(2-(cyclohexylamino)-5-methylpyrimidin-4-yl)-1H-pyrrole-3-carboxamide]
> 2500 | > 2500 | 250 to 500 |  | Cc1cnc(NCC2CCCO2)nc1-n1ccc(C(=O)N[C@H](CO)c2cccc(Cl)c2)c1 (stereo partly drawn) [Example 190, N-((S)-1-(3-chlorophenyl)-2-hydroxyethyl)-1-(5-methyl-2-(((tetrahydrofuran-2-yl)methyl)amino)pyrimidin-4-yl)-1H-pyrrole-3-carboxamide]
